Source: the supplement of paper PMC11451515

Tested on: SEM cells
Assay: cell viability relative to DMSO control; higher = less cytotoxic
Conditions: 48 h
How it was run: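 Viability was expressed as a per-plate percentage of DMSO wells, with cell-free wells as background. Leukemia cells (NOMO1 or SEM at 500 cells/well, P12-Ichikawa at 1000 cells/well) were adapted for at least four passages in each medium and seeded in 1536-well plates (5 μl). Library compounds in DMSO were pin-dosed over an 11-point threefold series from 47 μM to 0.79 nM, and CellTiter-Glo One luminescence was read after 48 h at 37°C.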

[1] = HPLM + 10% dialyzed FBS, 0.000781 µM
[2] = HPLM + 10% dialyzed FBS, 0.00234 µM
[3] = HPLM + 10% dialyzed FBS, 0.00702 µM
[4] = HPLM + 10% dialyzed FBS, 0.0211 µM
[5] = HPLM + 10% dialyzed FBS, 0.0632 µM
[6] = HPLM + 10% dialyzed FBS, 0.19 µM
[7] = HPLM + 10% dialyzed FBS, 0.569 µM
[8] = HPLM + 10% dialyzed FBS, 1.71 µM
[9] = HPLM + 10% dialyzed FBS, 5.12 µM
[10] = HPLM + 10% dialyzed FBS, 15.4 µM
[11] = HPLM + 10% dialyzed FBS, 46.1 µM
[12] = RPMI 5 mM glucose + 10% FBS, 0.000781 µM
[13] = RPMI 5 mM glucose + 10% FBS, 0.00234 µM
[14] = RPMI 5 mM glucose + 10% FBS, 0.00702 µM
[15] = RPMI 5 mM glucose + 10% FBS, 0.0211 µM
[16] = RPMI 5 mM glucose + 10% FBS, 0.0632 µM
[17] = RPMI 5 mM glucose + 10% FBS, 0.19 µM
[18] = RPMI 5 mM glucose + 10% FBS, 0.569 µM
[19] = RPMI 5 mM glucose + 10% FBS, 1.71 µM
[20] = RPMI 5 mM glucose + 10% FBS, 5.12 µM
[21] = RPMI 5 mM glucose + 10% FBS, 15.4 µM
[22] = RPMI 5 mM glucose + 10% FBS, 46.1 µM
[23] = RPMI 5 mM glucose + 10% dialyzed FBS, 0.000781 µM
[24] = RPMI 5 mM glucose + 10% dialyzed FBS, 0.00234 µM
[25] = RPMI 5 mM glucose + 10% dialyzed FBS, 0.00702 µM
[26] = RPMI 5 mM glucose + 10% dialyzed FBS, 0.0211 µM
[27] = RPMI 5 mM glucose + 10% dialyzed FBS, 0.0632 µM
[28] = RPMI 5 mM glucose + 10% dialyzed FBS, 0.19 µM
[29] = RPMI 5 mM glucose + 10% dialyzed FBS, 0.569 µM
[30] = RPMI 5 mM glucose + 10% dialyzed FBS, 1.71 µM
[31] = RPMI 5 mM glucose + 10% dialyzed FBS, 5.12 µM
[32] = RPMI 5 mM glucose + 10% dialyzed FBS, 15.4 µM
[33] = RPMI 5 mM glucose + 10% dialyzed FBS, 46.1 µM

O=C1NC(=O)/C(=C/c2cccc(C(F)(F)F)c2)S1 showed a cell viability [1] of 100%, a cell viability [2] of 93.3% and a cell viability [3] of 96.5%. For the same compound, the cell viability [4] was 108%, the cell viability [5] was 101% and the cell viability [6] was 102%. The cell viability [7] was 100%, the cell viability [8] was 100% and the cell viability [9] was 107%. The cell viability [10] was 89.1%, the cell viability [11] was 66.7% and the cell viability [12] was 99.5%. The cell viability [13] was 100%, the cell viability [14] was 110% and the cell viability [15] was 108%. For the same compound, the cell viability [16] was 112%, the cell viability [17] was 108% and the cell viability [18] was 115%. The cell viability [19] was 104%, the cell viability [20] was 108% and the cell viability [21] was 98.9%. For the same compound, the cell viability [22] was 59.7%, the cell viability [23] was 93.7% and the cell viability [24] was 106%. It also gave a cell viability [25] of 106%, a cell viability [26] of 115% and a cell viability [27] of 99.6%. It also gave a cell viability [28] of 94.4%, a cell viability [29] of 102% and a cell viability [30] of 108%. For the same compound, the cell viability [31] was 109%, the cell viability [32] was 102% and the cell viability [33] was 62.5%.
For Cc1ncc([N+](=O)[O-])n1CCO, the cell viability [1] was 100%, the cell viability [2] was 94% and the cell viability [3] was 104%. The cell viability [4] was 104%, the cell viability [5] was 112% and the cell viability [6] was 105%. The cell viability [7] was 103%, the cell viability [8] was 111% and the cell viability [9] was 118%. For the same compound, the cell viability [10] was 100%, the cell viability [11] was 108% and the cell viability [12] was 104%. The cell viability [13] was 118%, the cell viability [14] was 103% and the cell viability [15] was 111%. It also gave a cell viability [16] of 118%, a cell viability [17] of 109% and a cell viability [18] of 109%. For the same compound, the cell viability [19] was 117%, the cell viability [20] was 121% and the cell viability [21] was 105%. It also gave a cell viability [22] of 104%, a cell viability [23] of 107% and a cell viability [24] of 109%. The cell viability [25] was 123%, the cell viability [26] was 122% and the cell viability [27] was 114%. It also gave a cell viability [28] of 146%, a cell viability [29] of 127% and a cell viability [30] of 115%. For the same compound, the cell viability [31] was 122%, the cell viability [32] was 124% and the cell viability [33] was 130%.
Work on CC(C)(C)NC(=O)[C@H]1CC[C@H]2[C@@H]3CC[C@H]4NC(=O)\C=C/[C@]4(C)[C@H]3CC[C@]12C yielded a cell viability [1] of 88.1%, a cell viability [2] of 89.3% and a cell viability [3] of 98.7%. The cell viability [4] was 92%, the cell viability [5] was 95.8% and the cell viability [6] was 94.4%. For the same compound, the cell viability [7] was 101%, the cell viability [8] was 88.3% and the cell viability [9] was 102%. For the same compound, the cell viability [10] was 104%, the cell viability [11] was 101% and the cell viability [12] was 91.9%. For the same compound, the cell viability [13] was 92.4%, the cell viability [14] was 104% and the cell viability [15] was 95.5%. The cell viability [16] was 97.3%, the cell viability [17] was 90.2% and the cell viability [18] was 91.5%. For the same compound, the cell viability [19] was 99.7%, the cell viability [20] was 94% and the cell viability [21] was 106%. It also gave a cell viability [22] of 90.9%, a cell viability [23] of 95.4% and a cell viability [24] of 87.6%. For the same compound, the cell viability [25] was 91.7%, the cell viability [26] was 94.2% and the cell viability [27] was 104%. For the same compound, the cell viability [28] was 99.8%, the cell viability [29] was 104% and the cell viability [30] was 115%. It also gave a cell viability [31] of 111%, a cell viability [32] of 99.2% and a cell viability [33] of 91.2%.
CC(C)(C)NC(=O)[C@@H]1CN(Cc2cccnc2)CCN1C[C@@H](O)C[C@@H](Cc1ccccc1)C(=O)N[C@H]1c2ccccc2C[C@H]1O.O=S(=O)(O)O showed a cell viability [1] of 73.5%, a cell viability [2] of 89.2% and a cell viability [3] of 93.5%. The cell viability [4] was 100%, the cell viability [5] was 94.1% and the cell viability [6] was 96.5%. The cell viability [7] was 104%, the cell viability [8] was 90.9% and the cell viability [9] was 93.3%. For the same compound, the cell viability [10] was 90.3%, the cell viability [11] was 78.7% and the cell viability [12] was 109%. It also gave a cell viability [13] of 99.5%, a cell viability [14] of 104% and a cell viability [15] of 114%. For the same compound, the cell viability [16] was 107%, the cell viability [17] was 108% and the cell viability [18] was 112%. The cell viability [19] was 122%, the cell viability [20] was 95.6% and the cell viability [21] was 92.1%. It also gave a cell viability [22] of 54.5%, a cell viability [23] of 102% and a cell viability [24] of 102%. For the same compound, the cell viability [25] was 109%, the cell viability [26] was 119% and the cell viability [27] was 94.9%. For the same compound, the cell viability [28] was 118%, the cell viability [29] was 122% and the cell viability [30] was 112%. The cell viability [31] was 96.9%, the cell viability [32] was 90.4% and the cell viability [33] was 62.8%.
Compound Cc1ccc(C(=O)c2cc(O)c(O)c([N+](=O)[O-])c2)cc1 has a cell viability [1] of 78.2%, a cell viability [2] of 96.4% and a cell viability [3] of 98.5%. The cell viability [4] was 81.4%, the cell viability [5] was 97.7% and the cell viability [6] was 91.1%. It also gave a cell viability [7] of 115%, a cell viability [8] of 110% and a cell viability [9] of 108%. For the same compound, the cell viability [10] was 111%, the cell viability [11] was 95.6% and the cell viability [12] was 92.6%. It also gave a cell viability [13] of 88%, a cell viability [14] of 103% and a cell viability [15] of 100%. For the same compound, the cell viability [16] was 96.7%, the cell viability [17] was 101% and the cell viability [18] was 101%. It also gave a cell viability [19] of 99.7%, a cell viability [20] of 110% and a cell viability [21] of 87.6%. For the same compound, the cell viability [22] was 95.9%, the cell viability [23] was 83.1% and the cell viability [24] was 82.8%. The cell viability [25] was 88.7%, the cell viability [26] was 96.1% and the cell viability [27] was 93.4%. It also gave a cell viability [28] of 94%, a cell viability [29] of 80.8% and a cell viability [30] of 89.4%. It also gave a cell viability [31] of 102%, a cell viability [32] of 88.8% and a cell viability [33] of 101%.
Compound CC1(C)CC(O)CC(C)(C)N1[O] has a cell viability [1] of 87.2%, a cell viability [2] of 80.3% and a cell viability [3] of 89.8%. For the same compound, the cell viability [4] was 86.9%, the cell viability [5] was 81.6% and the cell viability [6] was 89.1%. For the same compound, the cell viability [7] was 44.7%, the cell viability [8] was 94.3% and the cell viability [9] was 89.5%. The cell viability [10] was 92.1%, the cell viability [11] was 84.2% and the cell viability [12] was 102%. For the same compound, the cell viability [13] was 114%, the cell viability [14] was 96.3% and the cell viability [15] was 105%. It also gave a cell viability [16] of 98.6%, a cell viability [17] of 96.6% and a cell viability [18] of 27.7%. It also gave a cell viability [19] of 101%, a cell viability [20] of 113% and a cell viability [21] of 103%. The cell viability [22] was 99.5%, the cell viability [23] was 98.6% and the cell viability [24] was 94.6%. The cell viability [25] was 97.8%, the cell viability [26] was 97.5% and the cell viability [27] was 94.3%. It also gave a cell viability [28] of 95.4%, a cell viability [29] of 32.7% and a cell viability [30] of 106%. For the same compound, the cell viability [31] was 108%, the cell viability [32] was 102% and the cell viability [33] was 85.4%.
Compound C[S+]([O-])c1ccc(-c2nc(-c3ccc(F)cc3)c(-c3ccncc3)[nH]2)cc1 (configuration not stated) has a cell viability [1] of 83.2%, a cell viability [2] of 84.2% and a cell viability [3] of 91.8%. It also gave a cell viability [4] of 84%, a cell viability [5] of 102% and a cell viability [6] of 81.5%. The cell viability [7] was 86.9%, the cell viability [8] was 62% and the cell viability [9] was 40.9%. It also gave a cell viability [10] of 4.09%, a cell viability [11] of 2.22% and a cell viability [12] of 103%. The cell viability [13] was 106%, the cell viability [14] was 102% and the cell viability [15] was 105%. For the same compound, the cell viability [16] was 107%, the cell viability [17] was 79.3% and the cell viability [18] was 75.1%. It also gave a cell viability [19] of 41%, a cell viability [20] of 21.9% and a cell viability [21] of 3.29%. It also gave a cell viability [22] of 2.41%, a cell viability [23] of 92.6% and a cell viability [24] of 99.7%. It also gave a cell viability [25] of 89.8%, a cell viability [26] of 97.8% and a cell viability [27] of 98.1%. For the same compound, the cell viability [28] was 77%, the cell viability [29] was 79.2% and the cell viability [30] was 59.4%. For the same compound, the cell viability [31] was 26.1%, the cell viability [32] was 3.71% and the cell viability [33] was 2.23%.
For CCNc1cc(NC2CCC(O)CC2)nc(Nc2ccc3c(ccn3Cc3ccccc3)c2)n1 (configuration not stated), the cell viability [1] was 102%, the cell viability [2] was 119% and the cell viability [3] was 129%. For the same compound, the cell viability [4] was 127%, the cell viability [5] was 118% and the cell viability [6] was 137%. The cell viability [7] was 124%, the cell viability [8] was 147% and the cell viability [9] was 123%. It also gave a cell viability [10] of 117% and a cell viability [11] of 105%.
